Results reported in patent US12435058B2, “KIF18A inhibitors” (AMGEN INC., priority 2019, dated 2025).

Target: T1, Recombinant human KIF18A (1-467 His-tagged) protein (Homo sapiens, UniProt Q8NI77)
T1 construct: Recombinant human KIF18A (1-467 His-tagged) protein; His; made in house
Test: KIF18A Enzyme Assay (microtubule-stimulated ATPase activity, ADP-Glo)
Format: biochemical
Details: KIF18A protein 30 nM, ATP 75 μM (at Km), 30 μg/mL pig microtubules, ADP-Glo luminescence
Excerpt: For compounds in Table A, the following assay conditions were employed:
KIF18A Enzyme Assay: Microtubule-stimulated ATPase activity assay is used to measure KIF18A enzyme activity after treatment with compound. Compounds were 2-fold serially diluted in DMSO (Sigma Inc) over 22-point concentration range. Recombinant human KIF18A (1-467 His-tagged) protein was expressed using a baculovirus system and purified by affinity chromatography by Amgen Inc. Concentrations of KIF18A protein, microtubules (MT), and ATP in the reaction were optimized for standardized homogenous enzyme assay using ADP-Glom Kinase/ATPase Assay Kit (Promega Inc). The assay measures ADP formed from the ATPase reaction. […] Read luminescence using EnVision microplate reader with ultra-luminescence module (Perkin Elmer Inc). Concentration-response curve-fitting and IC50 determination was performed using Genedata Screener Software (Standard 15.0.1, Genedata Inc) with a four-parameter logistic regression fit model.

T1 sequence (Q8NI77 1-467): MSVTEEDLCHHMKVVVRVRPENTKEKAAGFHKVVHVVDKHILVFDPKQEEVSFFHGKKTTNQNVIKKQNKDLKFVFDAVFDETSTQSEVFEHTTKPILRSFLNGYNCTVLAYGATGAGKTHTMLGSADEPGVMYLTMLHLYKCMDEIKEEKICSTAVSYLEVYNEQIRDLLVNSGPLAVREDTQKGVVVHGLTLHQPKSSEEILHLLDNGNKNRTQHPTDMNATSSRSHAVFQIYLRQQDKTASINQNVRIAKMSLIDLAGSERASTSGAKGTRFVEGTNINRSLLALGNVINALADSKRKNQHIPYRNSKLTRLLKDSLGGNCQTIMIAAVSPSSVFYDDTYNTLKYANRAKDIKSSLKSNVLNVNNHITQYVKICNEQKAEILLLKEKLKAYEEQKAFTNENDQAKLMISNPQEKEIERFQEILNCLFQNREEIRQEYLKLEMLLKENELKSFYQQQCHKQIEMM
T1 sequence (P02550 whole entry partner): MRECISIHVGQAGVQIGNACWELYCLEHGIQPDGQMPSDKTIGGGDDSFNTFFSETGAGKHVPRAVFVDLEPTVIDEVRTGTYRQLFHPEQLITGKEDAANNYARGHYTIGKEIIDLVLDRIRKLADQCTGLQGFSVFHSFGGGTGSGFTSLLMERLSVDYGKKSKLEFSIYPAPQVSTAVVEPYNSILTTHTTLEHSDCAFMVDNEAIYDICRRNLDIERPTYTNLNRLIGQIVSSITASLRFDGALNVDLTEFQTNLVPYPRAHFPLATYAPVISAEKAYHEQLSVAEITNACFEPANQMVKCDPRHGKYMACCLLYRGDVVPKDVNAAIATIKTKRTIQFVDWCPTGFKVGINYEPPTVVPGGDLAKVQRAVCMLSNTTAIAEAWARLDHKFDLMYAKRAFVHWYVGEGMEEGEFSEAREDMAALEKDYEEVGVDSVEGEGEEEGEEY
T1 sequence (P02554 whole entry partner): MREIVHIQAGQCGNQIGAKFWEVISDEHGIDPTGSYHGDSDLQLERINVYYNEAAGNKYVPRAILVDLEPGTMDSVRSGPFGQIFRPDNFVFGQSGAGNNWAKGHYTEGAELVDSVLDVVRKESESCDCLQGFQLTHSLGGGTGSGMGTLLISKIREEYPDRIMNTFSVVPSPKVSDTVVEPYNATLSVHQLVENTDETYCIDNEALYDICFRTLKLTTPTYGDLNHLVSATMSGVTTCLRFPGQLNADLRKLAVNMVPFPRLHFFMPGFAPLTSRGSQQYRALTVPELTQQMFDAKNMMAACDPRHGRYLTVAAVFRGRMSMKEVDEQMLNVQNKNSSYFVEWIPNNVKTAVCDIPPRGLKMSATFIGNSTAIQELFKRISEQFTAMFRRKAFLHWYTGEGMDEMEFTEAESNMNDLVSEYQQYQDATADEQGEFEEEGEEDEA

Row | SMILES | IC50 [nM]
1 | CC(C)(CO)Nc1cnc(C(=O)Nc2cccc(N3CCS(=O)(=O)CC3)c2)c(N2CCC3(CC2)CC3)n1 [Example 101-6, N-(3-(1,1-dioxidothiomorpholino)phenyl)-5-((1-hydroxy-2-methylpropan-2-yl)amino)-3-(6-azaspiro[2.5]octan-6-yl)pyrazine-2-carboxamide] | 545
2 | CC(C)(CO)Nc1cnc(C(=O)Nc2cccc(N3CCOCC3)c2)c(N2CCC3(CC2)CC3)n1 [Example 101-7, 5-((1-hydroxy-2-methylpropan-2-yl)amino)-N-(3-morpholinophenyl)-3-(6-azaspiro[2.5]octan-6-yl)pyrazine-2-carboxamide] | 768
3 | CC(C)(CO)Nc1cccc(NC(=O)c2ncc(NC(C)(C)CO)nc2N2CCC3(CC2)CC3)c1 [Example 101-8, 5-((1-hydroxy-2-methylpropan-2-yl)amino)-N-(3-((1-hydroxy-2-methylpropan-2-yl)amino)phenyl)-3-(6-azaspiro[2.5]octan-6-yl)pyrazine-2-carboxamide] | 240
4 | CC(C)(O)CNc1cnc(C(=O)Nc2cccc(S(=O)(=O)N3CCCCC3)c2)c(N2CCC3(CC2)CC3)n1 [Example 103-4, 5-((2-hydroxy-2-methylpropyl)amino)-N-(3-(piperidin-1-ylsulfonyl)phenyl)-3-(6-azaspiro[2.5]octan-6-yl)pyrazine-2-carboxamide] | 406
5 | CC(C)(C)NS(=O)(=O)c1cccc(NC(=O)c2ncc(NC(C)(C)CO)nc2-c2ccc(F)cc2)c1 [Example 104-1, N-(3-(N-(tert-butyl)sulfamoyl)phenyl)-3-(4-fluorophenyl)-5-((1-hydroxy-2-methylpropan-2-yl)amino)pyrazine-2-carboxamide] | 418
6 | CC(C)(C)NS(=O)(=O)c1cccc(NC(=O)c2ncc(NC(C)(C)CO)nc2-c2ccc(C(F)(F)F)cc2)c1 [Example 104-2, N-(3-(N-(tert-butyl)sulfamoyl)phenyl)-5-((1-hydroxy-2-methylpropan-2-yl)amino)-3-(4-(trifluoromethyl)phenyl)pyrazine-2-carboxamide] | 168
7 | CCc1ccc(-c2nc(NC(C)(C)CO)cnc2C(=O)Nc2cccc(S(=O)(=O)NC(C)(C)C)c2)cc1 [Example 104-3, N-(3-(N-(tert-butyl)sulfamoyl)phenyl)-3-(4-ethylphenyl)-5-((1-hydroxy-2-methylpropan-2-yl)amino)pyrazine-2-carboxamide] | 146

More lines, now with the values ahead:

Row | IC50 [nM] | SMILES
8 | 77 | CC(C)(CO)Nc1cnc(C(=O)Nc2cccc(S(=O)(=O)C3CCCC3)c2)c(N2CCC3(CC2)CC3)n1 [Example 103, N-(3-(Cyclopentylsulfonyl)phenyl)-5-((1-hydroxy-2-methylpropan-2-yl)amino)-3-(6-azaspiro[2.5]octan-6-yl)pyrazine-2-carboxamide]
9 | 135 | CC(C)(CO)Nc1cnc(C(=O)Nc2cccc(S(=O)(=O)N3CCCCC3)c2)c(N2CCC3(CC2)CC3)n1 [Example 103-1, 5-((1-hydroxy-2-methylpropan-2-yl)amino)-N-(3-(piperidin-1-ylsulfonyl)phenyl)-3-(6-azaspiro[2.5]octan-6-yl)pyrazine-2-carboxamide]
10 | 143 | O=C(Nc1cccc(S(=O)(=O)C2CCCC2)c1)c1ncc(NC2(CO)CC2)nc1N1CCC2(CC1)CC2 [Example 103-2, N-(3-(cyclopentylsulfonyl)phenyl)-5-((1-(hydroxymethyl)cyclopropyl)amino)-3-(6-azaspiro[2.5]octan-6-yl)pyrazine-2-carboxamide]
11 | 139 | CC(C)(C)NS(=O)(=O)c1cccc(NC(=O)c2ncc(NC3(CO)CC3)nc2N2CCC3(CC2)CC3)c1 [Example 103-3, N-(3-(N-(tert-butyl)sulfamoyl)phenyl)-5-((1-(hydroxymethyl)cyclopropyl)amino)-3-(6-azaspiro[2.5]octan-6-yl)pyrazine-2-carboxamide]
12 | 135 | CC(C)(C)NS(=O)(=O)c1cccc(NC(=O)c2ncc(NC(C)(C)CO)nc2-c2ccc(Cl)cc2)c1 [Example 104, N-(3-(N-(tert-butyl)sulfamoyl)phenyl)-3-(4-chlorophenyl)-5-((1-hydroxy-2-methylpropan-2-yl)amino)pyrazine-2-carboxamide]
13 | 141 | CC(C)c1ccc(-c2nc(NC(C)(C)CO)cnc2C(=O)Nc2cccc(S(=O)(=O)NC(C)(C)C)c2)cc1 [Example 104-4, N-(3-(N-(tert-butyl)sulfamoyl)phenyl)-5-((1-hydroxy-2-methylpropan-2-yl)amino)-3-(4-isopropylphenyl)pyrazine-2-carboxamide]
14 | 103 | CC(C)(C)NS(=O)(=O)c1cccc(NC(=O)c2ncc(NC(C)(CO)CO)nc2N2CCC3(CC2)CC3)c1 [Example 106, N-(3-(N-(tert-butyl)sulfamoyl)phenyl)-5-((1,3-dihydroxy-2-methylpropan-2-yl)amino)-3-(6-azaspiro[2.5]octan-6-yl)pyrazine-2-carboxamide]
